Ten compounds from ChEMBL document CHEMBL1201862, “PubChem BioAssay data set” (2004) can be followed below.

Among the test systems are A498; ACHN; CCRF-CEM; COLO 205; EKVX; HCC 2998; HOP-62; IGROV-1; KM12; LOX IMVI; MCF7; MDA-MB-231; MOLT-4; Malme-3M; OVCAR-3; OVCAR-4; PC-3; SK-MEL-5; SW-620; TK-10.
Common to all, as to experiment: NCI tumour cell line growth inhibition, 48 h

SMILES strings stand for the structures.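 Method: 48-hour compound exposure of cells in 96-well plates, five concentrations, linear interpolation of endpoints. GI50: concentration for 50% inhibition of growth.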 Activity calls are given as the source filed them. Rule as the data show it: active = GI50 up to about 1.1 µM and inactive = higher. Where a SMILES comes first, the peptide text is derived from it. The star is where a group is joined. Boc = CC(C)(C)OC(=O)*

On to `O=C1NC(c2cccc3ccccc23)Nc2ccc(Cl)cc21` (stereo unspecified), for which the GI50 in the test on A498 was 0.00143 µM (active); in the test with ACHN it was 0.00268 µM (active); with CCRF-CEM, 0.000618 µM (active); in the test with COLO 205 it was 0.00239 µM (active); in the test with EKVX, 0.00235 µM (active); in the test on HCC 2998, 0.0105 µM (active). Further, the GI50 was 0.00261 µM (active) with HOP-62; 0.0181 µM (active) with IGROV-1; 0.0022 µM (active) in the test on KM12; 0.000482 µM (active) with LOX IMVI; 0.0741 µM (active) with MCF7; 0.00838 µM (active) with MDA-MB-231. Besides, the GI50 in the test with MOLT-4 is 0.00174 µM (active); with Malme-3M it was 0.00176 µM (active); with OVCAR-3, 0.0016 µM (active); in the test on OVCAR-4, 0.327 µM (active); in the test on PC-3 it was 0.00165 µM (active); in the test on SK-MEL-5, 0.00106 µM (active). Besides, the GI50 in the test with SW-620 was 0.00168 µM (active).

Regarding `CCc1nc2ccc(C(F)(F)F)cc2[nH]c1=O`, the GI50 in the test on A498 was 94.4 µM (inactive); in the test on ACHN it was > 100 µM (inactive); with CCRF-CEM, > 100 µM (inactive); with COLO 205, > 100 µM (inactive); in the test on EKVX it was 44.5 µM (inactive); with HCC 2998, > 100 µM (inactive). Also, the GI50 with HOP-62 was > 100 µM (inactive); in the test on KM12 it was > 100 µM (inactive); in the test on LOX IMVI it was > 100 µM (inactive); with MCF7, > 100 µM (inactive); in the test on MDA-MB-231 it was 50.6 µM (inactive); in the test on MOLT-4, > 100 µM (inactive). The GI50 in the test with Malme-3M was > 100 µM (inactive); in the test on OVCAR-3, > 100 µM (inactive); in the test with OVCAR-4, 52.2 µM (inactive); in the test on PC-3 it was > 100 µM (inactive); in the test on SK-MEL-5, > 100 µM (inactive); with SW-620, > 100 µM (inactive). Further, the GI50 in the test on TK-10 is > 100 µM (inactive).

In the case of `COc1cc2c3c(n(C)c(=O)c2cc1OC)-c1cc2c(cc1/C3=C\CCCCl)OCO2`, the GI50 is 25.3 µM (inactive) in the test on A498; 29.7 µM (inactive) in the test with ACHN; 8.95 µM (inactive) in the test on CCRF-CEM; 32.9 µM (inactive) in the test on COLO 205; 54.6 µM (inactive) with EKVX; 23 µM (inactive) in the test on HCC 2998. Further, the GI50 with IGROV-1 was 25.4 µM (inactive); in the test on KM12 it was 23.8 µM (inactive); in the test with LOX IMVI, 39 µM (inactive); in the test with MCF7, 42 µM (inactive); with MDA-MB-231, 27.3 µM (inactive); in the test with MOLT-4, 6.68 µM (inactive). Further, the GI50 in the test on Malme-3M was > 100 µM (inactive); with OVCAR-4, 49.7 µM (inactive); in the test with PC-3 it was > 100 µM (inactive); in the test on SK-MEL-5, 25.6 µM (inactive); in the test on SW-620 it was > 100 µM (inactive); in the test on TK-10 it was 20.1 µM (inactive).

Regarding `CC(=O)O[C@H]1[C@@H]2OC(=O)[C@@](O)(CC3CCCO3)[C@@H]2CC(=O)[C@](C)(O)CC/C=C(\C)CCC[C@@H]1C` (stereo partly specified), the GI50 with A498 is > 100 µM (inactive); in the test on ACHN, 38.8 µM (inactive); with CCRF-CEM it was 22.7 µM (inactive); with COLO 205, 18.6 µM (inactive); in the test with EKVX, 52.8 µM (inactive); in the test with HCC 2998, > 100 µM (inactive). Further, the GI50 in the test with IGROV-1 was 46.5 µM (inactive); with KM12, 67.6 µM (inactive); in the test with LOX IMVI, 20.8 µM (inactive); with MCF7, 24.7 µM (inactive); with MDA-MB-231 it was 20.7 µM (inactive); in the test on Malme-3M, 41.2 µM (inactive). Moreover, the GI50 in the test with OVCAR-3 was 63.2 µM (inactive); in the test on OVCAR-4, 52.8 µM (inactive); with PC-3 it was 36.5 µM (inactive); in the test on SK-MEL-5, 43.6 µM (inactive); in the test with SW-620, 22.5 µM (inactive); with TK-10 it was 40.8 µM (inactive).

As to `Nc1nc(NCC2(CO)CC2)cc(=O)[nH]1`, the GI50 with A498, in the test on ACHN, in the test with CCRF-CEM, in the test on COLO 205, with EKVX and in the test with HCC 2998 was > 100 µM (inactive) throughout. The GI50 in the test on HOP-62, with IGROV-1, in the test with KM12, in the test on LOX IMVI, in the test with MCF7 and in the test with MDA-MB-231 was > 100 µM (inactive) throughout. Also, the GI50 with MOLT-4, with Malme-3M, in the test with OVCAR-3, in the test on OVCAR-4, with PC-3 and in the test on SK-MEL-5 was > 100 µM (inactive) each time. Besides, the GI50 with SW-620 was > 100 µM (inactive).

`Cc1ccc(S(=O)(=O)NN=C2C(C)CC(C(C)(C)C)CC2C)cc1` (stereo unspecified): the GI50 is 17.4 µM (inactive) in the test with A498; 20 µM (inactive) in the test on CCRF-CEM; 18.4 µM (inactive) in the test with COLO 205; 17.7 µM (inactive) in the test with HCC 2998; 16.4 µM (inactive) in the test on HOP-62; 38.9 µM (inactive) in the test with IGROV-1. Also, the GI50 in the test on KM12 was 17.6 µM (inactive); with LOX IMVI, 17.9 µM (inactive); in the test with MCF7, 21.1 µM (inactive); in the test on MDA-MB-231 it was 28.6 µM (inactive); in the test on MOLT-4, 20.6 µM (inactive); with Malme-3M, 17.8 µM (inactive). Also, the GI50 with OVCAR-3 is 16.6 µM (inactive); with OVCAR-4, 14.9 µM (inactive); in the test with PC-3 it was 18.8 µM (inactive); in the test with SK-MEL-5 it was 17.3 µM (inactive); in the test on SW-620, 20 µM (inactive); with TK-10, 26.4 µM (inactive).

Regarding `COC(=O)CNC(=O)C(Cc1ccccc1)NC(=O)C(CCSC)NC(=O)C(Cc1ccc(O)cc1)NC(=O)OC(C)(C)C` (stereo unspecified) (Boc-YMFG-OMe; configuration not given here), the GI50 was > 100 µM (inactive) in the test on A498; > 100 µM (inactive) with ACHN; 79.3 µM (inactive) in the test with COLO 205; 23.2 µM (inactive) in the test on HCC 2998; 31.5 µM (inactive) in the test with HOP-62; 62.7 µM (inactive) in the test on IGROV-1. The GI50 in the test on KM12 was > 100 µM (inactive); in the test with LOX IMVI, 18.5 µM (inactive); in the test on MCF7 it was 41.8 µM (inactive); in the test on MDA-MB-231 it was 24.5 µM (inactive); in the test with MOLT-4 it was 17.5 µM (inactive); in the test with Malme-3M, > 100 µM (inactive). The GI50 was 16.9 µM (inactive) in the test with OVCAR-3; > 100 µM (inactive) in the test on OVCAR-4; > 100 µM (inactive) in the test with PC-3; > 100 µM (inactive) in the test on SK-MEL-5; 40.3 µM (inactive) in the test with SW-620; > 100 µM (inactive) in the test on TK-10.

`CCCc1cc(O)c2c(C)c3[nH]c4ccc(Cl)cc4c3c(C)c2n1`: the GI50 in the test on A498 was 1.49 µM (inactive); in the test on ACHN it was 1.91 µM (inactive); in the test on CCRF-CEM, 2.07 µM (inactive); in the test with COLO 205 it was 2 µM (inactive); with EKVX it was 2.44 µM (inactive); with HCC 2998, 1.62 µM (inactive). The GI50 was 2.2 µM (inactive) in the test with HOP-62; 2.13 µM (inactive) in the test with IGROV-1; 3.48 µM (inactive) with KM12; 1.82 µM (inactive) in the test on LOX IMVI; 1.83 µM (inactive) with MCF7; 1.85 µM (inactive) in the test on MDA-MB-231. Also, the GI50 with MOLT-4 was 2.81 µM (inactive); with Malme-3M, 10.7 µM (inactive); with OVCAR-4 it was 1.86 µM (inactive); with PC-3 it was 4.06 µM (inactive); in the test on SK-MEL-5, 9.68 µM (inactive); in the test on SW-620 it was 1.63 µM (inactive). Besides, in the test with TK-10, the GI50 is 1.94 µM (inactive).

Take `COc1cc(/C=C2\C(=O)N(Cc3ccccc3)C(c3ccccc3)S2(=O)=O)cc(OC)c1OC` (stereo unspecified): the GI50 in the test on A498 was 21.4 µM (inactive); with ACHN, 67.3 µM (inactive); in the test on CCRF-CEM, 36.5 µM (inactive); with COLO 205, 21.3 µM (inactive); with EKVX it was 17.1 µM (inactive); with HCC 2998 it was > 100 µM (inactive). Moreover, the GI50 with HOP-62 was > 100 µM (inactive); with KM12, 34.7 µM (inactive); with LOX IMVI it was 27.5 µM (inactive); in the test with MCF7 it was 26.3 µM (inactive); in the test with MDA-MB-231, > 100 µM (inactive); in the test on MOLT-4, 4.11 µM (inactive). Also, the GI50 was 39.9 µM (inactive) in the test with Malme-3M; 47.3 µM (inactive) in the test on OVCAR-3; 17.5 µM (inactive) in the test on OVCAR-4; 43 µM (inactive) in the test on PC-3; 12 µM (inactive) with SK-MEL-5; 79.1 µM (inactive) with SW-620. In the test with TK-10, the GI50 was 36.1 µM (inactive).

In the case of `N#CC1=C(S)N(C2OC(CO)C(O)C(O)C2O)C(c2ccccc2)=CC1c1cccs1` (stereo unspecified), the GI50 in the test with A498 was > 10 µM (inactive); in the test with ACHN it was 18.7 µM (inactive); in the test with CCRF-CEM, 22.3 µM (inactive); in the test with COLO 205, 21.1 µM (inactive); with HCC 2998, 21.7 µM (inactive); with HOP-62, 22.1 µM (inactive). The GI50 with IGROV-1 is 22.6 µM (inactive); in the test with KM12, 18.8 µM (inactive); in the test on LOX IMVI, 18.7 µM (inactive); in the test on MCF7, 15.3 µM (inactive); with MDA-MB-231, 27.2 µM (inactive); with MOLT-4, 22.7 µM (inactive). The GI50 with Malme-3M was 19.3 µM (inactive); with OVCAR-3, 27.9 µM (inactive); in the test with OVCAR-4 it was 33.8 µM (inactive); in the test on PC-3, 15.1 µM (inactive); in the test on SK-MEL-5 it was 14.1 µM (inactive); in the test with SW-620, 16.6 µM (inactive). The GI50 in the test on TK-10 was 29 µM (inactive).
